ChEMBL document CHEMBL3867476, “Novel 5-substituted 3-hydroxyphenyl and 3-nitrophenyl ethers of S-prolinol as α4β2-nicotinic acetylcholine receptor ligands” (Bioorg Med Chem Lett, 2016)

Tests used:
[1] = target: T1, Neuronal acetylcholine receptor; alpha4/beta2 (Rattus norvegicus, UniProt P09483+P12390); assay: Displacement of [3H]-epibatidine from alpha4beta2-nACHR in rat cerebral cortex membranes preincubated for 30 mins followed by overnight incubation with [3H]-epibatine; assay type: cell membranes, Membrane
[2] = target: Neuronal acetylcholine receptor; alpha3/beta4 (Homo sapiens, UniProt P30926+P32297); assay: Displacement of [3H]-epibatine from human alpha3beta4-nACHR expressed in […] cell membranes preincubated for 5 mins followed by overnight incubation with [3H]-epibatine by liquid scintillation counting analysis
HEK243 = assay: Selectivity ratio of Ki for human alpha3beta4-nACHR expressed in […] cells to Ki for alpha4beta2-nACHR in rat cerebral cortex membranes; assay type: cell-based
[3] = target: T1, Neuronal acetylcholine receptor; alpha4/beta2; assay: Displacement of [3H]-cytisine from alpha4beta2-nACHR in rat whole brain membranes incubated for 60 mins; assay type: cell membranes, Membrane

T1 sequence (P09483 whole entry): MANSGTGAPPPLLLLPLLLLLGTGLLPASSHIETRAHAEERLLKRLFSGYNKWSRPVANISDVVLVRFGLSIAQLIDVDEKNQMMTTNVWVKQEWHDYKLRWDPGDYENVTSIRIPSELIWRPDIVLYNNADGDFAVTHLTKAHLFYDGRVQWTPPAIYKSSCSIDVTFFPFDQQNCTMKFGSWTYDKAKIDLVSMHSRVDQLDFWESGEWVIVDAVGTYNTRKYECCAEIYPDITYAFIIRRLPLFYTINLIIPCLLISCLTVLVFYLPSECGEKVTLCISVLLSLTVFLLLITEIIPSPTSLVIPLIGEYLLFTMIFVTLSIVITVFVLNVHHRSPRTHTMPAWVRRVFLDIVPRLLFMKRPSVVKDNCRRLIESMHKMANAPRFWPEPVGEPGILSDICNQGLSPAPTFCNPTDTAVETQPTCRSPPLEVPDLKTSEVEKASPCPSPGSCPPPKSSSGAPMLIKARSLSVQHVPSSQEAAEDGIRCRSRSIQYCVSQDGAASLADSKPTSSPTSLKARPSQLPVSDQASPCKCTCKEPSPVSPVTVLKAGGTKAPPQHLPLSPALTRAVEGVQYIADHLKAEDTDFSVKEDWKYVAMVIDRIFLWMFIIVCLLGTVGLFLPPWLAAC
T1 sequence (P12390 whole entry): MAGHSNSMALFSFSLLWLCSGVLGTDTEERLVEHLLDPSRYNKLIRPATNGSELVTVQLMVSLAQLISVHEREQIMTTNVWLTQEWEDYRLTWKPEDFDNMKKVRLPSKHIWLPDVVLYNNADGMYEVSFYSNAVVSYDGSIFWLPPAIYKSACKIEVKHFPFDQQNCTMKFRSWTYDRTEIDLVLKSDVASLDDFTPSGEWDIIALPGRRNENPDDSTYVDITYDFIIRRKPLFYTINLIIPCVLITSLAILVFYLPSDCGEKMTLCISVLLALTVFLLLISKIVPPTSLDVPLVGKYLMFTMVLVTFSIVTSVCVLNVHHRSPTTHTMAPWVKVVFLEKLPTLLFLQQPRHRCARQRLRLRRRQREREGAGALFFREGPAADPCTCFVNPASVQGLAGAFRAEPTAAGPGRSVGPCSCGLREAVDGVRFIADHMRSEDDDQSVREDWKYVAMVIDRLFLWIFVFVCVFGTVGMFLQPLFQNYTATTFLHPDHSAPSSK
Chain of Neuronal acetylcholine receptor; alpha3/beta4 (P30926 whole entry): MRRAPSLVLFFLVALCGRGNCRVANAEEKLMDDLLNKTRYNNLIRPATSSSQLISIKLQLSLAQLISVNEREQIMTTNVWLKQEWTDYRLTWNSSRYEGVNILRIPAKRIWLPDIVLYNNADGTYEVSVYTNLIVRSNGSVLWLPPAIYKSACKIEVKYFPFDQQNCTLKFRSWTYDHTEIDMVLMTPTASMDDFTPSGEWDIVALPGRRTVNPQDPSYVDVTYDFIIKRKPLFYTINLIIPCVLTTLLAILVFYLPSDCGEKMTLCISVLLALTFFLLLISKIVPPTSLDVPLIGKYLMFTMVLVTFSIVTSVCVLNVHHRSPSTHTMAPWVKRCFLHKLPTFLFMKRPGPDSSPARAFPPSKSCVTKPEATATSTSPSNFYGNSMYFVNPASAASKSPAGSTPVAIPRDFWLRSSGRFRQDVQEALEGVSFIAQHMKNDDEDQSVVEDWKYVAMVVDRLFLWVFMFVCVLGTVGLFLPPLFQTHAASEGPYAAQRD
Chain of Neuronal acetylcholine receptor; alpha3/beta4 (P32297 whole entry): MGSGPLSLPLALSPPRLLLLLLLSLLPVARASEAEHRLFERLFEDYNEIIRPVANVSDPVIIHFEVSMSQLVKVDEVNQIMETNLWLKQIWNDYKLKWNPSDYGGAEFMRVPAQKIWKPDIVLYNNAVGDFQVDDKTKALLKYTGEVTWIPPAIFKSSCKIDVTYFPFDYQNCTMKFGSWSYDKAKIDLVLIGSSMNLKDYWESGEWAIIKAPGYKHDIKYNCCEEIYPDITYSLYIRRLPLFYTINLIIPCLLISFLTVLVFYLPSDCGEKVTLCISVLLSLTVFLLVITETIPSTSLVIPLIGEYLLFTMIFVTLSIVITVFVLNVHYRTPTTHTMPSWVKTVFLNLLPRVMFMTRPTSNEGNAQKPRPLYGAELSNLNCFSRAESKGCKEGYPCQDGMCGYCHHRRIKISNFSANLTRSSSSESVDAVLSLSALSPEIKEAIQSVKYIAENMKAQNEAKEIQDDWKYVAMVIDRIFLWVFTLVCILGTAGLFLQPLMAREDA

Structure (SMILES) | Ki [1] | Ki [2] | Ratio Ki (HEK243) | Ki [3]
CN1CCC[C@H]1COc1cccc([N+](=O)[O-])c1 | 31.2 nM | 946 nM | 30 | 9 nM
CN1CCC[C@H]1COc1cc(-c2ccccc2)cc([N+](=O)[O-])c1 | 330 nM | 947 nM | 3 | –
CN1CCC[C@H]1COc1cc(O)cc(C#CCCCCO)c1 | 23.7 nM | 3100 nM | 131 | –
CN1CCC[C@H]1COc1cccc(C#CCCCCO)c1 | 4400 nM | 8300 nM | 2 | –
COc1cccc(OC[C@@H]2CCCN2C)c1 | 600 nM | 4500 nM | 7 | –
CN1CCC[C@H]1COc1cc(O)cc(Br)c1 | 186 nM | 147 nM | 0.8 | –
CN1CCC[C@H]1COc1cc(-c2ccc(O)cc2)cc([N+](=O)[O-])c1 | 12 nM | 122 nM | 10 | –
CN1CCC[C@H]1COc1cc(Br)cc([N+](=O)[O-])c1 | 55 nM | 415 nM | 8 | –
CN1CCC[C@H]1COc1cc(O)cc(-c2ccccc2)c1 | 528 nM | 200 nM | 0.4 | –
CN1CCC[C@H]1COc1cc(C#CCCCCO)cc([N+](=O)[O-])c1 | 14.2 nM | 1200 nM | 85 | –
CN1CCC[C@H]1COc1cc(O)cc(-c2ccc(O)cc2)c1 | 3.8 nM | 30 nM | 8 | –
